{
  "source": "patent US6911316B1",
  "about": "“Medical uses of scuPA/suPAR complex” (Thrombotech Ltd., priority 1996, dated 2005)",
  "key": {"[1]": {"test_system": "125I radiolabeled fibrinogen clots", "experiment": "Lysis of 125I radiolabeled fibrinogen clot, activator added directly to the clot, solubilized radioactivity", "assay_type": "biochemical, human", "details": "2 hrs", "description": "(§1) Human fibrinogen (Sigma. St. Louis, Mo.) was radiolabeled with ^125I [Higazi, A A-R. & Abu-Much R. et al. J. Biol. Chem. 270:9472-9477 (1995)]. ^125I-labeled fibrinogen was added to a solution of PBS, pH 7.4, containing either 3 mg/ml fibrinogen and 1 μM glu-plasminogen or plasma. Clots were formed in wells of tissue culture plates with an inner diameter of 16 mm (Costar, Cambridge, Mass.). To initiate the clot formation, 10 μl of a solution containing 2 NIH units of thrombin (Sigma. St. Louis, Mo.) were added to 0.4 ml of fibrinogen solution or to plasma. For determination of fibrinolysis, plasminogen activating agents (1 μM) or 1376 MAT cells, in a total volume of 10 μl each, were directly added to the center of the clot and after incubation for specific periods, the wells were washed and the radioactivity of the lavage solution was determined by means of a gamma counter. Fibrinolysis was also measured as previously described [Higazi, A A-R., et al. Biochem. J. 300:251-255 (1994)], by addition of 0.4 ml of serum or PBS, containing 25 nM of the plasminogen activator agent (scuPA, scuPA/suPAR complex or tcuPA). […] Fibrinolytic activity was determined by following the release from the ^125I-labeled fibrin clot of labeled soluble degradation products of fibrin and is illustrated in FIGS. 7 and 8."}, "[2]": {"test_system": "purified bovine fibrinogen clot", "experiment": "Fibrinolysis of purified fibrinogen clot, size of lytic zones", "assay_type": "biochemical", "description": "(§2) Fibrinogen containing plasminogen was reconstituted in phosphate buffered saline (PBS), pH 7.4 or in serum to a concentration of 3 mg/ml. Fibrin clots were prepared by the addition of 0.025 NIH units of human thrombin per […] fibrinogen solution. The mixture was decanted onto the lid of a culture dish and incubated for 60 min at room temperature. After clot formation, portions of 10 μl of PBS containing 1 μM scuPA, with or without an equimolar concentration of suPAR, were placed on several parts of the surface of the clot. The clot was incubated for 2 to 3 hr at 37° C., until the appearance of digestion areas on the surface. At that stage the clot was washed several times with PBS and incubated overnight with 0.2° trappan blue. On the following day, the clot was rinsed 4 is times with PBS and photographed The pictures were scanned with a Hoefer GS 300 scanning densitometer. The size of the lytic zones was calculated by the NIH image program."}, "human IgG": {"test_system": "human IgG", "experiment": "Binding of 125I-suPAR to IgG, precipitation with protein G", "details": "for precipitation by protein G from native plasma: 50 nM radiolabeled protein, FIG. 11", "description": "Plasma (5 ml) were incubated with 1 ml of IgG (bound to beads, as described) for 2 hr, at 4° C. The beads were precipitated by centrifugation and the plasma was decanted and used for precipitation of radiolabeled suPAR or for formation of clots after addition of thrombin, as described herein before.\n(§3) Binding of ^125I-suPAR to IgG was determined by incubation of 50 nM radiolabeled suPAR, 0.1 ml plasma and 0.5 ml of IgG protein, for 2 hr at 4° C. Following incubation, the mixture was centrifugated. The precipitate was washed 4 is times with PBS and the radioactivity incorporated into protein G was determined. Non-specific binding was determined by using plasma that had been depleted of IgG or by measuring the precipitation of irrelevant protein. All experiments were repeated at least three times."}, "IgG": {"test_system": "IgG", "experiment": "Binding of suPAR to IgG with rabbit serum", "details": "rabbit serum instead of human serum, data not shown", "description": "as §3"}, "[3]": {"test_system": "radiolabeled plasma-derived clot", "experiment": "Lysis of radiolabeled plasma-derived clot covered with serum or PBS containing the plasminogen activator", "assay_type": "biochemical, human", "description": "Human fibrinogen (Sigma. St. Louis, Mo.) was radiolabeled with ^125I [Higazi, A A-R. & Abu-Much R. et al. J. Biol. Chem. 270:9472-9477 (1995)]. ^125I-labeled fibrinogen was added to a solution of PBS, pH 7.4, containing either 3 mg/ml fibrinogen and 1 μM glu-plasminogen or plasma. Clots were formed in wells of tissue culture plates with an inner diameter of 16 mm (Costar, Cambridge, Mass.). To initiate the clot formation, 10 μl of a solution containing 2 NIH units of thrombin (Sigma. St. Louis, Mo.) were added to 0.4 ml of fibrinogen solution or to plasma. For determination of fibrinolysis, plasminogen activating agents (1 μM) or 1376 MAT cells, in a total volume of 10 μl each, were directly added to the center of the clot and after incubation for specific periods, the wells were washed and the radioactivity of the lavage solution was determined by means of a gamma counter. Fibrinolysis was also measured as previously described [Higazi, A A-R., et al. Biochem. J. 300:251-255 (1994)], by addition of 0.4 ml of serum or PBS, containing 25 nM of the plasminogen activator agent (scuPA, scuPA/suPAR complex or tcuPA). The plates were incubated at 37° C. in an incubator for the required time (about 2 hours, see legends to the Figures). Aliquots of 25 μl were removed at the specific time point for counting of the solubilized label in a gamma counter. Fibrinolytic activity was determined by following the release from the ^125I-labeled fibrin clot of labeled soluble degradation products of fibrin and is illustrated in FIGS. 7 and 8."}, "human fibrinogen": {"test_system": "human fibrinogen", "experiment": "Fibrinolysis of human fibrinogen clot (not shown)", "assay_type": "biochemical", "details": "human fibrinogen instead of bovine", "description": "as §2"}, "human plasma clot": {"test_system": "human plasma clot", "experiment": "Fibrinolysis of clot formed by thrombin from human plasma (lytic zones / solubilized radioactivity)", "assay_type": "biochemical", "description": "as §2, with “program. […]” for “program.”\nas §1, with “Clots were formed in wells of tissue culture plates with an inner diameter of 16 mm (Costar, Cambridge, Mass.). To initiate the clot formation, 10 μl of a solution containing 2 NIH units of thrombin (Sigma. St. Louis, Mo.) were added to 0.4 ml of fibrinogen solution or to plasma.” left out"}, "plasminogen": {"test_system": "plasminogen", "details": "cited from earlier work"}, "[4]": {"test_system": "bovine fibrinogen clot reconstituted in serum", "experiment": "Fibrinolysis of bovine fibrinogen clot reconstituted in serum", "assay_type": "biochemical", "details": "FIG. 5", "description": "as §2\nIn an experiment designed to test the possibility that the different effects were related to the source of fibrinogen, the fibrinogen was removed from plasma by clotting with thrombin and removal of the clot by centrifugation to obtain serum. […] The possibility that the stimulatory activity was derived from the anticoagulants present in plasma was considered."}, "[5]": {"test_system": "radiolabeled fibrinogen-derived clot", "experiment": "Lysis of radiolabeled fibrinogen-derived clot covered with serum or PBS containing the plasminogen activator", "assay_type": "biochemical, human", "description": "as §1"}, "[6]": {"test_system": "radiolabeled fibrinogen-derived clot containing 1 μM glu-plasminogen", "experiment": "Fibrinolytic activity of suPAR-Sepharose precipitates on fibrinogen-derived clot", "assay_type": "biochemical, human", "details": "FIG. 10", "description": "as §1, with “8. […]” for “8.”"}, "[7]": {"test_system": "clot prepared from IgG-depleted plasma", "experiment": "Lysis of clots derived from normal or IgG-depleted plasma", "assay_type": "biochemical, human", "details": "versus clot from normal plasma, FIG. 13", "description": "as §1, with “8. […]” for “8.”"}, "PAI-1": {"target": "PAI-1 (Homo sapiens, UniProt P05121)", "sequence (P05121 24-402, species assumed)": "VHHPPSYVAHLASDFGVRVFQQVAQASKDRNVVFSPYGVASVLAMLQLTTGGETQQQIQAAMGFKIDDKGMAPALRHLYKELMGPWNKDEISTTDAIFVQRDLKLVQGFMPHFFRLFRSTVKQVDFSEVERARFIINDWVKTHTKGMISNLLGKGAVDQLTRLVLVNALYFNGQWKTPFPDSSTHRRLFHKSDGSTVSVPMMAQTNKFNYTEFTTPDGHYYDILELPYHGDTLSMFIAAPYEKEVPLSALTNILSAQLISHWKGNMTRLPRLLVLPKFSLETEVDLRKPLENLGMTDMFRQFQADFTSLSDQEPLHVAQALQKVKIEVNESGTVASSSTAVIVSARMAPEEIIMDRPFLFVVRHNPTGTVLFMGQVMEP", "details": "cited from earlier work"}, "[8]": {"details": "plasma derived clot covered by serum, FIG. 8"}},
  "note": "Where “and” joins values, the source holds several entries; their conditions need not be identical. Equal entries are not always repeated.",
  "data": [
    {"substance": "suPAR: soluble urokinase plasminogen activator receptor", "values": [
      {"measurement": "inhibition of scuPA activity in the presence of suPAR", "setting": "[1]", "result": "~50", "unit": "%"},
      {"measurement": "inhibition of scuPA activity in the presence of suPAR", "setting": "[2]; unlabeled bovine fibrinogen clot, equimolar suPAR", "result": "about 40%"},
      {"measurement": "precipitation by protein G from native plasma", "setting": "human IgG", "result": "immunoprecipitates"},
      {"measurement": "precipitation with purified human IgG instead of plasma", "setting": "human IgG; FIG. 12", "result": "the same results were obtained"},
      {"measurement": "precipitation of suPAR with IgG-depleted plasma", "setting": "human IgG; IgG-depleted plasma versus native plasma", "result": "less than 25%"},
      {"measurement": "interaction between IgG and suPAR", "setting": "IgG", "result": "no interaction"},
      {"measurement": "effect of suPAR alone on fibrinolysis", "setting": "[3]; plasma clot, FIG. 6", "result": "depends on the presence of scuPA"},
      {"measurement": "effect of addition of suPAR to tcuPA", "setting": "[3]; [8]", "result": "small stimulatory effect"},
      {"measurement": "inhibition of scuPA activity by suPAR", "setting": "human fibrinogen", "result": "also observed"},
      {"measurement": "enhancement of scuPA-mediated fibrinolysis by addition of suPAR", "setting": "human plasma clot; plasma clots, FIG. 2", "result": "up to 14 fold"},
      {"measurement": "effect of suPAR on scuPA activity", "setting": "plasminogen; plasmin substrate Spect PL", "result": "stimulated"},
      {"measurement": "effect of suPAR on scuPA-mediated plasminogen activation", "setting": "plasminogen; synthetic plasmin substrate S-2251", "result": "inhibit"}
    ]},
    {"substance": "plasminogen: radiolabeled plasminogen used as irrelevant protein control in the protein G precipitation [reference compound]", "values": [
      {"measurement": "precipitation by protein G from native plasma", "setting": "human IgG", "result": "not precipitated"}
    ]},
    {"substance": "scuPA/suPAR complex: complex comprising single chain urokinase type plasminogen activator (scuPA) and soluble urokinase plasminogen activator receptor (suPAR)", "values": [
      {"measurement": "efficiency of clot cleavage compared with scuPA alone", "setting": "[4]; purified bovine fibrinogen added to serum", "result": "greater efficiency than by scuPA alone"},
      {"measurement": "lytic area", "setting": "[2]; purified bovine fibrinogen clot, FIG. 1(A), two wells each, listed as scuPA and suPAR", "result": "1.19 cm^2 and 1.05 cm^2"},
      {"measurement": "effect of serum covering the clot on fibrinolysis", "setting": "[5]; clot formed by purified fibrin covered with serum or PBS, FIG. 7", "result": "stimulated"},
      {"measurement": "fibrinolytic activity relative to that obtained on a plasma-derived clot", "setting": "[5]; purified fibrin clot covered with serum", "result": "about 60%"},
      {"measurement": "fibrinolytic activity in the absence of plasma-derived protein(s)", "setting": "[6]", "result": "little fibrinolytic activity"},
      {"measurement": "scuPA/suPAR-mediated fibrinolytic activity in the presence of plasma-derived protein(s)", "setting": "[6]", "result": "significantly increased"},
      {"measurement": "scuPA/suPAR mediated fibrinolysis of clot from IgG-depleted plasma", "setting": "[7]", "result": "markedly retarded"},
      {"measurement": "change of activity when a plasma clot is used instead of a fibrinogen clot", "setting": "[3]; FIG. 8", "result": "increase"},
      {"measurement": "effect of PBS instead of serum on the surface of the clot on fibrinolytic activity", "setting": "[3]; plasma clot", "result": "not affected"},
      {"measurement": "time to half maximal fibrinolysis", "setting": "[3]; plasma clot covered with serum, 25 nM activator", "result": 54, "unit": "min"},
      {"measurement": "time to half maximal fibrinolysis", "setting": "[3]; plasma clot covered with serum, 50% decrease of the concentration of the complex, data not shown", "result": 102, "unit": "min"},
      {"measurement": "time needed for half maximal fibrinolysis", "setting": "[3]; plasma clot covered with serum, doubling the concentration of the complex, data not shown", "result": 33, "unit": "min"},
      {"measurement": "activity on clot formed by clotting of plasma compared with tcuPA", "setting": "[3]; [8]", "result": "greater than that of tcuPA"},
      {"measurement": "size of the lytic area", "setting": "human plasma clot; human plasma clot, FIG. 2(A) lane (c), upper and lower panels, listed as scuPA and suPAR", "result": "0.94 cm^2 and 0.90 cm^2"},
      {"measurement": "mechanism of PAI-1 inhibition", "setting": "PAI-1", "result": "competitive and reversible"},
      {"measurement": "susceptibility of activity to PAI-1", "setting": "PAI-1", "result": "relatively resistant"}
    ]},
    {"substance": "ATF: amino-terminal fragment of urokinase; blocks interaction of scuPA with suPAR [reference compound]", "values": [
      {"measurement": "effect of ATF on the stimulatory effect of suPAR", "setting": "[4]; bovine fibrinogen clot in serum", "result": "can be abolished"},
      {"measurement": "effect of ATF on scuPA/suPAR mediated fibrinolysis", "setting": "[3]; 250 nM ATF, plasma clot covered with serum", "result": "significantly inhibited"},
      {"measurement": "effect of ATF on the stimulatory effect of suPAR on scuPA-mediated fibrinolysis", "setting": "human plasma clot; plasma clot, FIG. 3", "result": "almost complete inhibition"}
    ]}
  ]
}
